Source: US20160186209A1, “RECOMBINANT CELLS AND METHODS OF USING SUCH CELLS TO IDENTIFY CIRCADIAN RHYTHM MODULATORS” (University of Memphis Research Foundation, priority 2012, published 2016)

Tests used:
[1] = test system: Differentiated 3T3-L1 cells (ERK phosphorylation); test: Insulin-induced ERK phosphorylation (Western blot), differentiated 3T3-L1 cells; format: cell-based, mouse; details: 0.1 nM insulin for 5 minutes
Procedure: (§1) FIGS. 1A-1C are graphs showing that fibroblasts, adipocytes, and hepatocytes display bioluminescence rhythms. […] Reporter cells were generated via lentiviral infection of either Per2-dLuc or Bmal1-dLuc luciferase reporter, and infected cell populations were recorded in a LumiCycle. Baseline-subtracted bioluminescence data of both reporter lines are plotted together to show the expected, approximately anti-phasic reporter expression for each cell type. […] Baseline-subtracted bioluminescence data of selected clonal lines representing both reporter types are plotted together to show anti-phasic reporter expression for each cell type. High reproducibility is illustrated by showing data from 24 of the 96 wells for each reporter. […] Differentiated 3T3-L1 and MMH-D3 cells were treated with 0.1, 1, or 10 nM insulin for 5, 15, or 30 minutes, followed by cell lysis and Western blot analysis with ERK and pERK antibodies. […] Data are representative of two independent experiments.
(§2) To develop new models, a battery of luciferase-based reporters that can be introduced into cells via transient transfection or lentiviral transduction was engineered. To explore cell type specificity of clock gene function, new reporter cell lines comprising lentiviral luciferase reporter driven either by the Per2 or Bmal1 promoters were developed. […]

[2] = test system: Differentiated MMH-D3 cells (ERK phosphorylation); test: Insulin-induced ERK phosphorylation (Western blot), differentiated MMH-D3 cells; format: cell-based; details: 0.1 nM insulin for 5 minutes
Procedure: as §1, §2

Substance: insulin
- ERK activation as reflected by its phosphorylation [1]: sufficient to activate ERK
- ERK activation as reflected by its phosphorylation [2]: sufficient to activate ERK
